Results: US8338587B2, “Compounds” (AstraZeneca AB, priority 2009, dated 2012)

Target: T1, recombinant human GR (Homo sapiens, UniProt P04150)
T1 construct: purchased Panvera/Invitrogen P2812 (kit P2893)
T1 sequence (P04150 1-777): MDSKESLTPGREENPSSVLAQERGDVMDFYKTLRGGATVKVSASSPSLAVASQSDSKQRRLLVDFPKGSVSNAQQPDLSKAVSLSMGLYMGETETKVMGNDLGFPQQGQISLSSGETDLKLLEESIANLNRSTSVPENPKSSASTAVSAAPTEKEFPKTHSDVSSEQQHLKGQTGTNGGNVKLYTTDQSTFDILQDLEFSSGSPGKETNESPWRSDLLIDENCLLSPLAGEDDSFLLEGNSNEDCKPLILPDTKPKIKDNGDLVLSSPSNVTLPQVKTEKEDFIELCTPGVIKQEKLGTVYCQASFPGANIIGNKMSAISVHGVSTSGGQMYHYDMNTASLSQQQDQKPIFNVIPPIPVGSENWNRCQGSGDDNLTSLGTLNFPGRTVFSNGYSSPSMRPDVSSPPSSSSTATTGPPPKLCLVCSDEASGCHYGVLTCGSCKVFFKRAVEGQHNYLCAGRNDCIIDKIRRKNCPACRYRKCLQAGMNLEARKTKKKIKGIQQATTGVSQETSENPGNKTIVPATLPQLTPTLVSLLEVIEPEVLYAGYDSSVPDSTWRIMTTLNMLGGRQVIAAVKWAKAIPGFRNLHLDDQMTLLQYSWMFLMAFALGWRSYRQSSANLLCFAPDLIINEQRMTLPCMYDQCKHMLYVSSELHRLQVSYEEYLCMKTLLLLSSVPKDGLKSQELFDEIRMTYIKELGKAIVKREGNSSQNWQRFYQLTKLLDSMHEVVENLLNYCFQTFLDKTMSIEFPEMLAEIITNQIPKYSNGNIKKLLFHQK
Assay: Human Glucocorticoid Receptor (GR) Assay (fluorescence polarization competition, Panvera/Invitrogen kit)
Conditions: GS Red Fluoromone tracer, 2 hours at room temperature, 100% control 10 μM Dexamethasone, read-out: Inhibition of GR binding, IC50
Outline: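 Recombinant human GR was incubated with GS Red fluorescent tracer and stabilizing peptide in buffer with potassium phosphate, sodium molybdate, EDTA, DMSO and DTT. Incubation was 2 h in the dark at room temperature. Tracer displacement was read by fluorescence polarization (ex 530/em 590 nm); 10 μM dexamethasone defined 100% and DMSO defined 0%.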

COCC(=O)O[C@]1(C(=O)SCC#N)[C@H](C)C[C@H]2[C@@H]3CCC4=Cc5c(cnn5-c5ccc(F)nc5)C[C@]4(C)[C@@]3(F)[C@@H](O)C[C@@]21C [Example 30, (1R,2R,3aS,3bS,10aS,10bR,11S,12aS)-10b-Fluoro-1-{[(cyanomethyl)sulfanyl]carbonyl}-7-(6-fluoropyridin-3-yl)-11-hydroxy-2,10a,12a-trimethyl-1,2,3,3a,3b,4,5,7,10,10a,10b,11,12,12a-tetradecahydrocyclopenta[5,6]naphtho[1,2-f]indazol-1-yl methoxyacetate]
IC50: 1.6 nM
